Laboratory results as given in PubChem BioAssay AID330 (DTP/NCI, 2004).
Inconclusive results and toxic doses are left out.

Tested on: P388 leukemia ip, CD2F1 mice, survival T/C
Assay: NCI In Vivo Anticancer Drug Screen. Data for tumor model P388 Leukemia (intraperitoneal) in CD2F1 (CDF1) mice
Details: endpoint: median survival time, higher = longer survival
How it was run: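 Mice carrying the transplanted tumor received test compound or vehicle. Survival was recorded in each group, and the value is the treated-group measurement divided by that of the vehicle-treated control group.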

[1] = dose: 50.0 mg/kg/injection, schedule: Q01DX005 (ip), vehicle: saline with Tween-80
[2] = dose: 50.0 mg/kg/injection, schedule: Q01DX009 (ip), vehicle: Klucel (hydroxypropylcellulose) (HPC)
[3] = dose: 100.0 mg/kg/injection, schedule: Q01DX009 (ip), vehicle: Klucel (hydroxypropylcellulose) (HPC)
[4] = dose: 60.0 mg/kg/injection, schedule: Q01DX005 (ip), vehicle: Klucel (hydroxypropylcellulose) (HPC)
[5] = dose: 120.0 mg/kg/injection, schedule: Q01DX005 (ip), vehicle: Klucel (hydroxypropylcellulose) (HPC)
[6] = dose: 240.0 mg/kg/injection, schedule: Q01DX005 (ip), vehicle: Klucel (hydroxypropylcellulose) (HPC)

CC1=NCC(C)c2ccccc21 (configuration not stated) was tested, and the T/C (dose: 6.25 mg/kg/injection, schedule: Q01DX009 (ip), vehicle: saline with Tween-80) was 96 % of control and the T/C (dose: 12.5 mg/kg/injection, schedule: Q01DX009 (ip), vehicle: saline with Tween-80) was 95 % of control.

Cn1c(NCCN2CCOCC2)c(C(=O)/C=C/c2ccccc2)c(=O)n(C)c1=O was tested, and the T/C [1] was 98 % of control, the T/C (dose: 100.0 mg/kg/injection, schedule: Q01DX005 (ip), vehicle: saline with Tween-80) was 92 % of control and the T/C (dose: 200.0 mg/kg/injection, schedule: Q01DX005 (ip), vehicle: saline with Tween-80) was 95 % of control.

[Se]=[Hf]=[Se] was tested, and the T/C (dose: 60.0 mg/kg/injection, schedule: Q01DX005 (ip), vehicle: saline with Tween-80) was 97 % of control, the T/C (dose: 120.0 mg/kg/injection, schedule: Q01DX005 (ip), vehicle: saline with Tween-80) was 97 % of control and the T/C (dose: 240.0 mg/kg/injection, schedule: Q01DX005 (ip), vehicle: saline with Tween-80) was 94 % of control.

In the case of CCOC1(NC(=O)N(C)C)CC1, the T/C (dose: 50.0 mg/kg/injection, schedule: Q04DX003 (ip), vehicle: saline) is reported as 103 % of control, the T/C (dose: 100.0 mg/kg/injection, schedule: Q04DX003 (ip), vehicle: saline) is reported as 102 % of control and the T/C (dose: 200.0 mg/kg/injection, schedule: Q04DX003 (ip), vehicle: saline) is reported as 102 % of control.

With Cc1cc2cc(CN3C(=O)c4ccccc4C3=O)ccc2[nH]1 the T/C (dose: 100.0 mg/kg/injection, schedule: Q01DX001 (ip), vehicle: Klucel (hydroxypropylcellulose) (HPC)) was 100 % of control, the T/C (dose: 200.0 mg/kg/injection, schedule: Q01DX001 (ip), vehicle: Klucel (hydroxypropylcellulose) (HPC)) was 93 % of control and the T/C (dose: 400.0 mg/kg/injection, schedule: Q01DX001 (ip), vehicle: Klucel (hydroxypropylcellulose) (HPC)) was 93 % of control.

With S=C(Nc1ccccc1)Nc1ncccn1 the T/C [2] was 111 % of control and the T/C [3] was 99 % of control.

For CN=C(N)N/N=C(\c1ccccc1)c1ccc(Cl)cc1, the T/C (dose: 6.25 mg/kg/injection, schedule: Q04DX002 (ip), vehicle: saline with Tween-80) was 102 % of control, the T/C (dose: 12.5 mg/kg/injection, schedule: Q04DX002 (ip), vehicle: saline with Tween-80) was 109 % of control and the T/C (dose: 25.0 mg/kg/injection, schedule: Q04DX002 (ip), vehicle: saline with Tween-80) was 153 % of control.

In the case of O=C(O)c1c(C(=O)O)c(C(=O)O)c(C(=O)O)c(C(=O)O)c1C(=O)O, the T/C (dose: 25.0 mg/kg/injection, schedule: Q01DX009 (ip), vehicle: water) is reported as 111 % of control, the T/C (dose: 50.0 mg/kg/injection, schedule: Q01DX009 (ip), vehicle: water) is reported as 106 % of control and the T/C (dose: 100.0 mg/kg/injection, schedule: Q01DX009 (ip), vehicle: water) is reported as 109 % of control. For the same molecule, the T/C (dose: 200.0 mg/kg/injection, schedule: Q01DX009 (ip), vehicle: water) was 101 % of control.

With c1ccc2c(c1)[nH]c1cc3ccncc3cc12 the T/C (dose: 50.0 mg/kg/injection, schedule: Q04DX003 (ip), vehicle: saline with Tween-80) was 94 % of control, the T/C (dose: 100.0 mg/kg/injection, schedule: Q04DX003 (ip), vehicle: saline with Tween-80) was 91 % of control and the T/C (dose: 200.0 mg/kg/injection, schedule: Q04DX003 (ip), vehicle: saline with Tween-80) was 87 % of control.

In the case of CCCCN=NN/C=C/C(C)(C)C, the T/C [1] is reported as 115 % of control.

COc1cc2c(cc1OCc1ccccc1)C(Cc1cc(Br)sc1Br)N(C(C)=O)CC2 (configuration not stated) was tested, and the T/C (dose: 63.0 mg/kg/injection, schedule: Q01DX001 (ip), vehicle: Klucel (hydroxypropylcellulose) (HPC)) was 97 % of control, the T/C (dose: 126.0 mg/kg/injection, schedule: Q01DX001 (ip), vehicle: Klucel (hydroxypropylcellulose) (HPC)) was 101 % of control and the T/C (dose: 252.0 mg/kg/injection, schedule: Q01DX001 (ip), vehicle: Klucel (hydroxypropylcellulose) (HPC)) was 109 % of control.

With Cn1c(=O)c2cn[nH]c2n(C)c1=O the T/C [2] was 104 % of control, the T/C [3] was 100 % of control and the T/C (dose: 200.0 mg/kg/injection, schedule: Q01DX009 (ip), vehicle: Klucel (hydroxypropylcellulose) (HPC)) was 96 % of control.

COc1ccc(C2c3cc4c(cc3OC(O)C2C)OCO4)cc1 (configuration not stated) was tested, and the T/C [4] was 106 % of control, the T/C [5] was 100 % of control and the T/C [6] was 101 % of control.

With O=C1[C@@H]2CCC[C@@H]2[C@H]2CCC[C@@H]12 the T/C (dose: 100.0 mg/kg/injection, schedule: Q01DX001 (ip), vehicle: saline with Tween-80) was 95 % of control, the T/C (dose: 200.0 mg/kg/injection, schedule: Q01DX001 (ip), vehicle: saline with Tween-80) was 102 % of control and the T/C (dose: 400.0 mg/kg/injection, schedule: Q01DX001 (ip), vehicle: saline with Tween-80) was 89 % of control.

With Cc1cc2c(=O)cc(-c3ccccc3)oc2c(C#N)c1C the T/C [4] was 99 % of control, the T/C [5] was 94 % of control and the T/C [6] was 93 % of control.
